Patent publication US20170305922A1, “CARM1 INHIBITORS AND USES THEREOF” (Epizyme, Inc., priority 2014, published 2017)

Key:
[1] = tested on: asymmetric di-methyl PABP1 in RKO cells; assay: RKO methylation assay: In Cell Western (ICW) for asymmetric di-methyl PABP1 (PABP1me2a); conditions: Homo sapiens, RKO, 48 h, Cellular-based (PABP1me2a) ICW (In Cell Western) assay
Outline: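 In-cell western on compound-exposed RKO cells (48 hours): asymmetric di-methyl PABP1 detected by antibody at 800 nm, DNA content by DRAQ5 at 700 nm. Percent inhibition from signal ratios against DMSO (minimum) and 20 μM reference compound (maximum) wells; IC50 curves fitted from triplicates.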

Human CARM1 (PRMT4) = molecular target: T1, Human CARM1 (PRMT4) (Homo sapiens, UniProt Q86X55); assay: CARM1 enzyme assay on peptide substrates (3H-SAM Flashplate); conditions: Biochemical assay; CARM1 0.25 nM, 3H-SAM 30 nM, peptide 250 nM; read-out: Biochem IC50
T1 construct: Flag-CARM1-His was eluted with 200 ug/ml FLAG peptide in buffer A; made in house; host or cells: HEK 293F cells infected with recombinant baculovirus (pFastBacMam)
T1 sequence (Q86X55 1-585 isoform Q86X55-1): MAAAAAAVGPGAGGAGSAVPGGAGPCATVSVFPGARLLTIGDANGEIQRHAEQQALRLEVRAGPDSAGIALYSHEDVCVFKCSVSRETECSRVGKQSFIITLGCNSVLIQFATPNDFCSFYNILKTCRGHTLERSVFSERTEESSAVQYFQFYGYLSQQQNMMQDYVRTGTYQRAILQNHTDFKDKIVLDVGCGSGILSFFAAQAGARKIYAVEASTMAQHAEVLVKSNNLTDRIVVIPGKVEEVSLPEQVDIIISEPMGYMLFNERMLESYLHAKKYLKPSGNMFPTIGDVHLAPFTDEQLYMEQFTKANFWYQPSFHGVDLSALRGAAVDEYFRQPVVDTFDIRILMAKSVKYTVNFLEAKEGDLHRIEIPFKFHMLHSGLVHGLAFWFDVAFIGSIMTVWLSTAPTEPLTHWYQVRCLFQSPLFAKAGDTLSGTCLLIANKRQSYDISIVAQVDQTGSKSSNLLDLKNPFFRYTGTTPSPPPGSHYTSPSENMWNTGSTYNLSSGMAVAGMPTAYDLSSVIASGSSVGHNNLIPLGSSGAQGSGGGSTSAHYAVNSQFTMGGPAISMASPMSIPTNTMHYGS

SMILES	IC50 [1] [nM]	IC50 (Human CARM1 (PRMT4)) [nM]
CNC[C@@H](O)COc1ccc(Cl)c(-c2nc(-c3c(C)noc3C)c(C)c(N3Cc4cnc(N5CC(OC)C5)nc4C3)n2)c1 [Example 147]	16	2.8
CNC[C@@H](O)COc1ccc(Cl)c(-c2nc(-c3c(C)noc3C)c(C)c(N3Cc4nc(C)oc4C3)n2)c1 [Example 149]	52	3.1
CNC[C@@H](O)COc1ccc(Cl)c(-c2nc(-c3c(C)noc3C)c(C)c(N3Cc4cccnc4C3)n2)c1Cl [Example 150]	2020	16.2
CNC[C@@H](O)COc1ccc(Cl)c(-c2nc(-c3c(C)noc3C)c(C)c(N3C[C@H]4C[C@@H]3CN4CC(F)(F)F)n2)c1 [Example 151]	668	12.1
CNC[C@@H](O)COc1ccc(Cl)c(-c2nc(-c3c(C)c(Cl)nn3C)c(C)c(N3Cc4cnc(OC)nc4C3)n2)c1 [Example 152]	18	1.9
CNC[C@@H](O)COc1ccc(Cl)c(-c2nc(-c3c(C)c(Cl)nn3C)c(C)c(N3Cc4cnc(N5CCC5)nc4C3)n2)c1 [Example 153]	15	1.9
CNC[C@@H](O)COc1ccc(Cl)c(-c2nc(-c3c(C)noc3C)c(C)c(N3Cc4ncnc(OCC(F)F)c4C3)n2)c1 [Example 154]	57	3.1
CCOc1ncc2c(n1)CN(c1nc(-c3cc(OC[C@H](O)CNC)ccc3Cl)nc(-c3c(C)c(Cl)nn3C)c1C)C2 [Example 155]	18	2.4
CNC[C@@H](O)COc1ccc(Cl)c(-c2nc(-c3c(C)c(Cl)nn3C)c(C)c(N3Cc4cnc(OCC(F)F)nc4C3)n2)c1 [Example 156]	31	3.5
CCN(C)c1ncc2c(n1)CN(c1nc(-c3cc(OC[C@H](O)CNC)ccc3Cl)nc(-c3c(C)noc3C)c1C)C2 [Example 157]	26	2.4
CNC[C@@H](O)COc1ccc(Cl)c(-c2nc(-c3c(C)noc3C)c(C)c(N3Cc4cnc(N(C)C)nc4C3)n2)c1 [Example 158]	18	2.9
CCN(C)c1ncc2c(n1)CN(c1nc(-c3cc(OC[C@H](O)CNC)ccc3Cl)nc(-c3c(C)c(Cl)nn3C)c1C)C2 [Example 159]	39	2
CNC[C@@H](O)COc1ccc(Cl)c(-c2nc(-c3c(C)noc3C)c(C)c(N3CC4(CC(C(=O)N5CC(OC)C5)C4)C3)n2)c1 [Example 162]	550	6.9
CNC[C@@H](O)COc1ccc(Cl)c(-c2nc(-c3c(C)noc3C)c(C)c(N3CC4(CC(C(=O)N5CCC5)C4)C3)n2)c1 [Example 163]	292	6.2
CNC[C@@H](O)COc1ccc(Cl)c(-c2nc(-c3c(C)noc3C)c(C)c(N3Cc4nccc(C)c4C3)n2)c1 [Example 164]	55	2.2
CNC[C@@H](O)COc1ccc(Cl)c(-c2nc(-c3c(C)noc3C)c(C)c(N3CC4(CCC(C(=O)N5CCOCC5)CC4)C3)n2)c1 [Example 165]	322	5.8
CNC[C@@H](O)COc1ccc(Cl)c(-c2nc(-c3c(C)noc3C)c(C)c(N3Cc4cnc(OC5CCOCC5)nc4C3)n2)c1 [Example 166]	49	5.1
CNC[C@@H](O)COc1ccc(Cl)c(-c2nc(-c3c(C)noc3C)c(C)c(N3Cc4cnc(N5CCC5C)nc4C3)n2)c1 (stereo partly drawn) [Example 167]	19	1.9
CNC[C@@H](O)COc1ccc(Cl)c(-c2nc(-c3c(C)c(Cl)nn3C)c(C)c(N3Cc4cnc(N(C)C)nc4C3)n2)c1 [Example 168]	26	2.5
CNC[C@@H](O)COc1ccc(Cl)c(-c2nc(-c3c(C)noc3C)c(C)c(N3Cc4cnc(OC)cc4C3)n2)c1 [Example 169]	34	2.1

SMILES	IC50 [1] [nM]	IC50 (Human CARM1 (PRMT4)) [nM]
CNC[C@@H](O)COc1ccc(Cl)c(-c2nc(-c3c(C)noc3C)c(C)c(N3Cc4ccc(OC)nc4C3)n2)c1 [Example 170]	38	1.9
CCc1onc(C)c1-c1nc(-c2cc(OC[C@H](O)CNC)ccc2Cl)nc(N2CC3(CC(OC)C3)C2)c1C [Example 171]	174	5.8
CNC[C@@H](O)COc1ccc(Cl)c(-c2nc(-c3c(C)noc3C)c(C)c(N3CC4(CCC(OCC(F)F)CC4)C3)n2)c1 [Example 172]	57	4.7
CNC[C@@H](O)COc1ccc(Cl)c(-c2nc(-c3c(C)noc3C)c(C)c(N3CC4(CCC(C(=O)N5CC(OC)C5)CC4)C3)n2)c1 [Example 173]	408	5
CNC[C@@H](O)COc1ccc(Cl)c(-c2nc(-c3c(C)noc3C)c(C)c(N3CC4(CCC(C(=O)N5CCC5)CC4)C3)n2)c1 [Example 174]	271	3.9
CCc1onc(C)c1-c1nc(-c2cc(OC[C@H](O)CNC)ccc2Cl)nc(N2Cc3cnc(N4CCC4)nc3C2)c1C [Example 175]	13	1.7
CCOC(=O)N1CC2=C(C1)CN(c1nc(-c3cc(OC[C@H](O)CNC)ccc3Cl)nc(-c3c(C)noc3C)c1C)C2 [Example 176]	26	2.7
CNC[C@@H](O)COc1ccc(Cl)c(-c2nc(-c3c(C)noc3C)c(C)c(N3CC4=C(CN(C(=O)N(C)C)C4)C3)n2)c1 [Example 177]	87	3.6
CNC[C@@H](O)COc1ccc(Cl)c(-c2nc(-c3c(C)c(Cl)nn3C)c(C)c(N3Cc4cnc(OCCOC)nc4C3)n2)c1 [Example 178]	24	1.4
CCc1onc(C)c1-c1nc(-c2cc(OC[C@H](O)CNC)ccc2Cl)nc(N2CC3(CCN(C(=O)OC)CC3)C2)c1C [Example 179]	119	5.1
CNC[C@@H](O)COc1ccc(Cl)c(-c2nc(-c3c(C)noc3C)c(C)c(N3CC4(CCN(C(=O)OCC(F)F)C4)C3)n2)c1 [Example 180]	121	4.1
CNC[C@@H](O)COc1ccc(Cl)c(-c2nc(-c3c(C)noc3C)c(C)c(N3Cc4cnc(N5CCOC5=O)nc4C3)n2)c1 [Example 181]	459	1.8
CNC[C@@H](O)COc1ccc(Cl)c(-c2nc(-c3c(C)noc3C)c(C)c(N3Cc4cnc(N(C)C)cc4C3)n2)c1 [Example 183]	31	1.8
CNC[C@@H](O)COc1ccc(Cl)c(-c2nc(-c3c(C)noc3C)c(C)c(N3CC(F)(C(=O)N4CCC4)C3)n2)c1 [Example 184]	488	6.1
CNC[C@@H](O)COc1ccc(Cl)c(-c2nc(-c3c(C)noc3C)c(C)c(N3CC(F)(C(=O)N(C)C)C3)n2)c1 [Example 185]	346	5.1
CNC[C@@H](O)COc1ccc(Cl)c(-c2nc(-c3c(C)noc3C)c(C)c(N3Cc4ccnc(N(C)C)c4C3)n2)c1 [Example 186]	49	1.8
CNC[C@@H](O)COc1ccc(Cl)c(-c2nc(-c3c(C)noc3C)c(C)c(N3CC(C)(C(=O)N4CCC4)C3)n2)c1 [Example 187]	337	5.8
CNC[C@@H](O)COc1ccc(Cl)c(-c2nc(-c3c(C)noc3C)c(C)c(N3CC(C)(C(=O)N(C)C)C3)n2)c1 [Example 188]	150	5.2
CCC1(C(=O)N2CCC2)CN(c2nc(-c3cc(OC[C@H](O)CNC)ccc3Cl)nc(-c3c(C)noc3C)c2C)C1 [Example 189]	246	5.7
